Laboratory results as given in ChEMBL document CHEMBL1201862, “PubChem BioAssay data set” (2004).
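Where inhibition never reached the appropriate level, the endpoint shown equals the highest concentration tested. Otherwise, values were interpolated linearly from a five-concentration, 48-hour dose response in 96-well plates. At the GI50, growth is halved.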 Activity calls are given as the source filed them. Cut-off read from the data, not from the text of the source: active = GI50 up to about 1.1 µM and inactive = higher. Where a SMILES comes first, the peptide text is derived from it. The star is where a group is joined. Boc = CC(C)(C)OC(=O)*; Bn = c1ccc(C*)cc1

Tests used:
Assay in all cases: NCI-60 cell line screen, 48 h
HCT-15 = tested on: HCT-15
SK-MEL-5 = tested on: SK-MEL-5
HCC 2998 = tested on: HCC 2998
IGROV-1 = tested on: IGROV-1
UO-31 = tested on: UO-31
SK-OV-3 = tested on: SK-OV-3
OVCAR-3 = tested on: OVCAR-3
SR = tested on: SR
KM12 = tested on: KM12
K562 = tested on: K562
NCI-H226 = tested on: NCI-H226
T47D = tested on: T47D
BT-549 = tested on: BT-549
NCI-H23 = tested on: NCI-H23
SK-MEL-2 = tested on: SK-MEL-2
SNB-75 = tested on: SNB-75
COLO 205 = tested on: COLO 205
ACHN = tested on: ACHN
HT-29 = tested on: HT-29
LOX IMVI = tested on: LOX IMVI
TK-10 = tested on: TK-10
DU-145 = tested on: DU-145
EKVX = tested on: EKVX
SNB-19 = tested on: SNB-19
MOLT-4 = tested on: MOLT-4
RXF 393 = tested on: RXF 393
MCF7 = tested on: MCF7
NCI/ADR-RES = tested on: NCI/ADR-RES
786-0 = tested on: 786-0
HOP-92 = tested on: HOP-92
Malme-3M = tested on: Malme-3M
PC-3 = tested on: PC-3
HOP-62 = tested on: HOP-62
UACC-62 = tested on: UACC-62
Hs-578T = tested on: Hs-578T
OVCAR-8 = tested on: OVCAR-8
NCI-H460 = tested on: NCI-H460
SN12C = tested on: SN12C
OVCAR-4 = tested on: OVCAR-4
HCT-116 = tested on: HCT-116
SF-295 = tested on: SF-295
MDA-MB-435 = tested on: MDA-MB-435
RPMI-8226 = tested on: RPMI-8226
CAKI-1 = tested on: CAKI-1
M14 = tested on: M14
SF-539 = tested on: SF-539
OVCAR-5 = tested on: OVCAR-5
A549 = tested on: A549
UACC-257 = tested on: UACC-257
NCI-H522 = tested on: NCI-H522
SW-620 = tested on: SW-620
MDA-N = tested on: MDA-N
U-251 = tested on: U-251
SF-268 = tested on: SF-268
SK-MEL-28 = tested on: SK-MEL-28
HL-60 = tested on: HL-60
MDA-MB-231 = tested on: MDA-MB-231
CCRF-CEM = tested on: CCRF-CEM

O=C(C(=O)N1CCc2ccccc21)c1c[nH]c2ccccc12
GI50 (HCT-15): > 10 µM | GI50 (SK-MEL-5): > 10 µM (inactive) | GI50 (HCC 2998): > 10 µM (inactive) | GI50 (IGROV-1): > 10 µM (inactive) | GI50 (UO-31): > 10 µM (inactive) | GI50 (SK-OV-3): > 10 µM (inactive) | GI50 (OVCAR-3): > 10 µM (inactive) | GI50 (SR): > 10 µM (inactive) | GI50 (KM12): > 10 µM (inactive) | GI50 (K562): > 10 µM (inactive) | GI50 (NCI-H226): > 10 µM (inactive) | GI50 (T47D): > 10 µM (inactive) | GI50 (BT-549): > 10 µM (inactive) | GI50 (NCI-H23): > 10 µM (inactive) | GI50 (SK-MEL-2): > 10 µM (inactive) | GI50 (SNB-75): > 10 µM (inactive) | GI50 (COLO 205): > 10 µM (inactive) | GI50 (ACHN): > 10 µM (inactive) | GI50 (HT-29): > 10 µM (inactive) | GI50 (LOX IMVI): > 10 µM (inactive) | GI50 (TK-10): > 10 µM (inactive) | GI50 (DU-145): > 10 µM (inactive) | GI50 (EKVX): > 10 µM (inactive) | GI50 (SNB-19): > 10 µM (inactive) | GI50 (MOLT-4): > 10 µM (inactive) | GI50 (RXF 393): > 10 µM (inactive) | GI50 (MCF7): > 10 µM (inactive) | GI50 (NCI/ADR-RES): > 10 µM (inactive) | GI50 (786-0): > 10 µM (inactive) | GI50 (HOP-92): > 10 µM (inactive) | GI50 (Malme-3M): > 10 µM (inactive) | GI50 (PC-3): > 10 µM (inactive) | GI50 (HOP-62): > 10 µM (inactive) | GI50 (UACC-62): > 10 µM (inactive) | GI50 (Hs-578T): > 10 µM (inactive) | GI50 (OVCAR-8): > 10 µM (inactive) | GI50 (NCI-H460): > 10 µM (inactive) | GI50 (SN12C): > 10 µM (inactive) | GI50 (OVCAR-4): > 10 µM (inactive) | GI50 (HCT-116): > 10 µM (inactive) | GI50 (SF-295): > 10 µM (inactive) | GI50 (MDA-MB-435): > 10 µM (inactive) | GI50 (RPMI-8226): > 10 µM (inactive) | GI50 (CAKI-1): > 10 µM (inactive) | GI50 (M14): > 10 µM (inactive) | GI50 (SF-539): > 10 µM (inactive) | GI50 (OVCAR-5): > 10 µM (inactive) | GI50 (A549): > 10 µM (inactive) | GI50 (UACC-257): > 10 µM (inactive) | GI50 (NCI-H522): > 10 µM (inactive) | GI50 (SW-620): > 10 µM (inactive) | GI50 (MDA-N): > 10 µM (inactive) | GI50 (U-251): > 10 µM (inactive) | GI50 (SF-268): > 10 µM (inactive) | GI50 (SK-MEL-28): > 10 µM (inactive) | GI50 (HL-60): > 10 µM (inactive) | GI50 (MDA-MB-231): > 10 µM (inactive) | GI50 (CCRF-CEM): > 10 µM (inactive)

COC(=O)C(CC(C)C)NC(=O)CNC(=O)C(Cc1ccc(OCc2ccccc2)cc1)NC(=O)C(COCc1ccccc1)NC(=O)OC(C)(C)C (configuration not stated) (Boc-S(Bn)Y(Bn)GL-OMe; configuration not given here)
GI50 (SK-MEL-5): > 100 µM (inactive) | GI50 (IGROV-1): > 100 µM (inactive) | GI50 (UO-31): > 100 µM (inactive) | GI50 (SK-OV-3): > 100 µM (inactive) | GI50 (OVCAR-3): > 100 µM (inactive) | GI50 (SR): > 100 µM (inactive) | GI50 (KM12): > 100 µM (inactive) | GI50 (K562): 3.49 µM (inactive) | GI50 (NCI-H226): > 100 µM (inactive) | GI50 (T47D): > 100 µM (inactive) | GI50 (BT-549): > 100 µM (inactive) | GI50 (NCI-H23): > 100 µM (inactive) | GI50 (SNB-75): > 100 µM (inactive) | GI50 (COLO 205): > 100 µM (inactive) | GI50 (ACHN): > 100 µM (inactive) | GI50 (HT-29): > 100 µM (inactive) | GI50 (LOX IMVI): 58.5 µM (inactive) | GI50 (TK-10): > 100 µM (inactive) | GI50 (DU-145): > 100 µM (inactive) | GI50 (EKVX): > 100 µM (inactive) | GI50 (SNB-19): > 100 µM (inactive) | GI50 (MOLT-4): > 100 µM (inactive) | GI50 (RXF 393): > 100 µM (inactive) | GI50 (MCF7): > 100 µM (inactive) | GI50 (NCI/ADR-RES): > 100 µM (inactive) | GI50 (786-0): > 100 µM (inactive) | GI50 (HOP-92): > 100 µM (inactive) | GI50 (Malme-3M): > 100 µM (inactive) | GI50 (PC-3): > 100 µM (inactive) | GI50 (HOP-62): > 100 µM (inactive) | GI50 (UACC-62): > 100 µM (inactive) | GI50 (Hs-578T): > 100 µM (inactive) | GI50 (OVCAR-8): > 100 µM (inactive) | GI50 (NCI-H460): > 100 µM (inactive) | GI50 (SN12C): > 100 µM (inactive) | GI50 (OVCAR-4): > 100 µM (inactive) | GI50 (HCT-116): > 100 µM (inactive) | GI50 (SF-295): > 100 µM (inactive) | GI50 (MDA-MB-435): > 100 µM (inactive) | GI50 (RPMI-8226): 9.51 µM (inactive) | GI50 (CAKI-1): > 100 µM (inactive) | GI50 (M14): > 100 µM (inactive) | GI50 (SF-539): > 100 µM (inactive) | GI50 (OVCAR-5): > 100 µM (inactive) | GI50 (A549): > 100 µM (inactive) | GI50 (NCI-H522): 72.8 µM (inactive) | GI50 (SW-620): > 100 µM (inactive) | GI50 (MDA-N): > 100 µM (inactive) | GI50 (U-251): > 100 µM (inactive) | GI50 (SF-268): > 100 µM (inactive) | GI50 (SK-MEL-28): > 100 µM (inactive) | GI50 (HL-60): 4.56 µM (inactive) | GI50 (MDA-MB-231): > 100 µM (inactive)

N=c1oc2ccccc2cc1-c1nc2ccccc2[nH]1
GI50 (HCT-15): 31.5 µM | GI50 (SK-MEL-5): 20.8 µM (inactive) | GI50 (HCC 2998): 71.3 µM (inactive) | GI50 (IGROV-1): 18.9 µM (inactive) | GI50 (UO-31): 12.1 µM (inactive) | GI50 (SK-OV-3): 13.6 µM (inactive) | GI50 (SR): 19.2 µM (inactive) | GI50 (KM12): 30.8 µM (inactive) | GI50 (K562): 18.9 µM (inactive) | GI50 (NCI-H226): > 100 µM (inactive) | GI50 (T47D): 16.7 µM (inactive) | GI50 (BT-549): 27.5 µM (inactive) | GI50 (SK-MEL-2): 49.2 µM (inactive) | GI50 (SNB-75): 41.1 µM (inactive) | GI50 (COLO 205): 51.2 µM (inactive) | GI50 (ACHN): 16.9 µM (inactive) | GI50 (HT-29): 36 µM (inactive) | GI50 (LOX IMVI): 32.5 µM (inactive) | GI50 (TK-10): 17.7 µM (inactive) | GI50 (DU-145): 18.4 µM (inactive) | GI50 (EKVX): 18.2 µM (inactive) | GI50 (SNB-19): 98.9 µM (inactive) | GI50 (MOLT-4): 10.1 µM (inactive) | GI50 (RXF 393): 38.9 µM (inactive) | GI50 (MCF7): 19.9 µM (inactive) | GI50 (NCI/ADR-RES): 22.3 µM (inactive) | GI50 (786-0): 15.4 µM (inactive) | GI50 (HOP-92): 2.23 µM (inactive) | GI50 (Malme-3M): 24.9 µM (inactive) | GI50 (PC-3): 78 µM (inactive) | GI50 (HOP-62): 53 µM (inactive) | GI50 (UACC-62): 41.4 µM (inactive) | GI50 (Hs-578T): 41 µM (inactive) | GI50 (OVCAR-8): 71.6 µM (inactive) | GI50 (NCI-H460): 49.1 µM (inactive) | GI50 (SN12C): > 100 µM (inactive) | GI50 (OVCAR-4): > 100 µM (inactive) | GI50 (HCT-116): 49.1 µM (inactive) | GI50 (SF-295): 78.3 µM (inactive) | GI50 (MDA-MB-435): 15.5 µM (inactive) | GI50 (RPMI-8226): 26.3 µM (inactive) | GI50 (CAKI-1): 43.9 µM (inactive) | GI50 (M14): 70.8 µM (inactive) | GI50 (SF-539): 44.3 µM (inactive) | GI50 (OVCAR-5): > 100 µM (inactive) | GI50 (A549): 74.1 µM (inactive) | GI50 (UACC-257): > 100 µM (inactive) | GI50 (NCI-H522): 1.89 µM (inactive) | GI50 (SW-620): 36.6 µM (inactive) | GI50 (MDA-N): 17.3 µM (inactive) | GI50 (U-251): 61.7 µM (inactive) | GI50 (SF-268): 64.9 µM (inactive) | GI50 (SK-MEL-28): 89.9 µM (inactive) | GI50 (HL-60): 7.05 µM (inactive) | GI50 (MDA-MB-231): 22.4 µM (inactive) | GI50 (CCRF-CEM): 14 µM (inactive)
